# From patent US20210260069A1, “IRE1a INHIBITOR IN COMBINATION WITH CANCER [sequence] AGENT FOR CANCER TREATMENT” (Fosun Orinove PharmaTech, Inc., priority 2018, published 2021)
# Assays:
# RPMI 8226 tumor cells = assay: Intratumoral XBP-1 spliced effect in Velcade treated RPMI xenografts; type: in vivo, Nude mice; settings: Orin 1001 30 mg/kg PO on Day 27 in Velcade treated mice, tumor taken four hours later
# Experimental: The mice were treated again on the 24th day with Velcade®. On Day 27, the mice were treated with Orin 1001 at 30 mg/kg PO, four hours later the mice were sacrificed as in Example 25, and tumor tissues were isolated. In a similar way as described for the liver PD test in Example 25, RNA extraction and RT-PCR analysis gave the results as shown FIG. 13.
# BALB/c mice were injected intraperitoneally with 100 microliters at an equivalent dose of 1 mg/kg tunicamycin solution. Two hours after tunicamycin injection, mice were dosed with compound of interest either PO or IV. Following 2 hours for PO delivery of compound, mice were euthanized according to IACUC protocols using CO2 from a […] source. A 1 cm^3 fragment of the liver for homogenization and extraction of the RNA were collected for further analysis. Total RNA is harvested from cells or tissue using TRIzol according to the manufacturer's procedures. After ethanol precipitation and resuspension of the RNA, RiboGreen (Invitrogen) is used to quantify the yield and normalize the RNA concentration in the source tube containing isolated RNA. RT-PCR is performed by Oligo(dT) priming, and SuperScript II (Invitrogen) transcription using the Amplitaq Gold Kit (Applied Biosystems) according to the manufacturer's protocols. […]
# [1] = test system: human breast adenocarcinoma MDA-MB231 tumor cells; type: in vivo
# Experimental: Orin 1001 was administered by oral gavage in combination with paclitaxel in a xenograft mouse model using female NCr nu/nu mice (n=10 in each group) injected subcutaneously with human breast adenocarcinoma MDA-MB231 tumor cells. To evaluate the effect of Orin 1001 in combination with paclitaxel, Orin 1001 was administered via oral gavage at 75, 150 or 300 mg/kg/day in combination with paclitaxel at 10 mg/kg iv, weekly (n=10/group) for up to 60 days.
# Hep3B-Luc cells = assay: Orthotopic Hep3B-luc human liver xenograft model (Example 22); type: in vivo, female BALB/c nude mice
# Experimental: The tumor was inoculated by injecting Hep3B-Luc cells (established by WuXi AppTec R&D center) mixed with BD Matrigel in 20 μl (PBS:Matrigel=1:1) into the left lobe of the liver. […] Sorafenib was formulated with Cremophor® EL/ethanol (1:1) and purified water to form a solution of 9 mg/ml. […] Tumor weight was measured at the termination of study. T/Cweight value (in percent) was calculated using the formula: T/Cweight%=Tweight/Cweight×100%, while Tweight and Cweight were the mean tumor weights of the treated and the vehicle control groups, respectively.
# human liver HUH-7 cells = assay: Subcutaneous HUH-7 liver cancer xenograft model, survival (Example 23); type: in vivo, Female BALB/c nude mice
# Experimental: Female BALB/c nude mice were subcutaneously inoculated with human liver HUH-7 cells (from JCRB) to establish a xenograft model of liver cancer. The scheduled administration cycle was 28 days. Animals were assigned into 4 groups (n=10/group): one vehicle group, two single treatment groups (Orin 1001 administered at 80 mg/kg/day q.d. for 28 days; Sorafenib administered following a dose regimen of 18.25 mg/kg/day q.d. for 5 days, then 25 mg/kg/day q.d. for 3 days, and then 45 mg/kg/day q.d. for 20 days, consecutively) and one combination treatment group (sorafenib administered following a dose regimen of 18.25 mg/kg/day q.d. for 5 days, then 25 mg/kg/day q.d. for 3 days, and then 45 mg/kg/day q.d. for 20 days, consecutively, whilst combined with Orin 1001 administered q.d. at a dose of 80 mg/kg/day for 28 days). All vehicle or administration treatments were given via oral gavage. Sorafenib was formulated with Kolliphor® EL/ethanol (2/1, v/v) and water. Orin 1001 was dissolved with cellulose microcrystalline and sucrose in purified water to form as suspension. The mice were euthanized if a tumor volume achieved over 2000 mm^3. Otherwise the experiment ended on the 6th day after the last administration.
# IRE1α = target: T1, IRE1α (Mus musculus, UniProt Q9EQY0); assay: Liver PD screening assay: XBP-1 splicing analysis of liver after tunicamycin (Example 25); type: in vivo, BALB/c mice; settings: PO, 2 hours after tunicamycin 1 mg/kg ip, liver 2 hours after dosing, FIG. 23, read-out: ED50 (inhibition of XBP-1 splicing in liver)
# T1 construct: from tissue; host or cells: liver of BALB/c mice (in vivo)
# Experimental: Example 25 was related to comparative PD/PK data of Orin 1001 VS compound 4315, as its structure shown below, which is an earlier lead of this series of compounds. Tunicamycin was used herein to activate IRE1, then Orin 1001 (also called 4485) or 4315 were given to inhibit the activating effect. […] Each gel panel represents one mouse liver sample as in the figure.
# BALB/c mice were injected intraperitoneally with 100 microliters at an equivalent dose of 1 mg/kg tunicamycin solution. Two hours after tunicamycin injection, mice were dosed with compound of interest either PO or IV. Following 2 hours for PO delivery of compound, mice were euthanized according to IACUC protocols using CO2 from a […] source. A 1 cm^3 fragment of the liver for homogenization and extraction of the RNA were collected for further analysis. Total RNA is harvested from cells or tissue using TRIzol according to the manufacturer's procedures. After ethanol precipitation and resuspension of the RNA, RiboGreen (Invitrogen) is used to quantify the yield and normalize the RNA concentration in the source tube containing isolated RNA. RT-PCR is performed by Oligo(dT) priming, and SuperScript II (Invitrogen) transcription using the Amplitaq Gold Kit (Applied Biosystems) according to the manufacturer's protocols. Primers for human XBP-1 are 5_-[…]-3_ (forward, Seq ID No. 8) and 5_-[…]-3_ (reverse, Seq ID No. 9), and for mouse are 5_-[…]-3_ (forward, Seq ID No. 10) and 5_-[…]-3 (Seq ID No. 11). All DNA oligos were purchased from IDT DNA Technologies. PCR is run on a Bio-Rad PTC-100 96-well thermocycler with heating at 94° C. for 30 s, annealing at 58° C. for 30 s, and polymerizing at 72° C. for 30 s for 35 cycles. Reactions are run on 4% precast NuSieve gels from Cambrex and visualized by ethidium bromide staining and UV excitation.
# (§1) All PK experiments are standard tests that performed in either WuXi PharmaTech or Charels River Laboratory. 4315 and 4485 (Orin 1001) were dosed PO as a suspension in 1% microcellulose (Sigma) and 50% Sucrouse (Sigma).
# [2] = Oral bioavailability test, mouse; settings: in vivo, 10 mg/kg dose
# Experimental: as §1
# [3] = Oral bioavailability test, rat; settings: in vivo, 10 mg/kg dose
# Experimental: as §1
# [4] = Oral bioavailability test, dog; settings: in vivo, 4 mg/kg dose
# Experimental: as §1
# 7-day toxicity study = type: in vivo; settings: cynomolgus monkey
# T1 sequence (Q9EQY0 21-977): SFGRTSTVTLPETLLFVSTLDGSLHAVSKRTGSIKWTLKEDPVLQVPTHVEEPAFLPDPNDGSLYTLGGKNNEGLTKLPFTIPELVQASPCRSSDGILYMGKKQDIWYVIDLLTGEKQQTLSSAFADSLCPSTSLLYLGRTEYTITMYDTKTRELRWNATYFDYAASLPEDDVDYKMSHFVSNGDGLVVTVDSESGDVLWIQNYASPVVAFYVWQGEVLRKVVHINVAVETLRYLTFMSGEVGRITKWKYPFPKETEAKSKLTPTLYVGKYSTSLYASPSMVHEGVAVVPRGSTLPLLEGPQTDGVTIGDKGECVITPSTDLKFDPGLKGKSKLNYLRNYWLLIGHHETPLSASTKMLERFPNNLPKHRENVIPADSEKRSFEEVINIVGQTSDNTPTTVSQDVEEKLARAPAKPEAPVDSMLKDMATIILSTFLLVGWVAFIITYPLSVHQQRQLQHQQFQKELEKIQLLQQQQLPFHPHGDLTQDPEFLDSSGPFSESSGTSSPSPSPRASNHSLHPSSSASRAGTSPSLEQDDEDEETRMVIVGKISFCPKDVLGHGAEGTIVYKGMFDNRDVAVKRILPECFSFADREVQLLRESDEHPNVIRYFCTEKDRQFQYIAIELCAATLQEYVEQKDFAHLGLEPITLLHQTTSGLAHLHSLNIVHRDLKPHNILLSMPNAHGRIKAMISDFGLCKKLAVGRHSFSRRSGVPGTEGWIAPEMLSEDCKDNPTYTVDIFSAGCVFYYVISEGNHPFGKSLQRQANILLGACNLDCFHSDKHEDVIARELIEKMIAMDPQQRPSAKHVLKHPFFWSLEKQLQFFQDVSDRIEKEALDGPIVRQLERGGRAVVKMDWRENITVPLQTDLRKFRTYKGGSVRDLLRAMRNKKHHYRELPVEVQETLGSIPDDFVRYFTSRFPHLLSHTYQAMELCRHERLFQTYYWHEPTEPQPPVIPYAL
smiles,measurement,setting,value
COc1cc2c(C)c(CC(=O)N3CCOCC3)c(=O)oc2c(C=O)c1O [Orin 1001],inhibition of activated IRE1 (intratumoral XBP1s),RPMI 8226 tumor cells,can inhibit the activity of the activated IRE1
same,clinical signs of toxicity,"[1]; 75, 150 or 300 mg/kg/day oral gavage with paclitaxel 10 mg/kg iv weekly, up to 60 days",no clinical signs of toxicity
same,tolerability of extended oral dosing,[1]; up to 60 consecutive days,well tolerated
same,T/Cweight (%),"Hep3B-Luc cells; mean tumor weight treated / vehicle control, day 28",56%
same,Tumor Weight (g) at day 28,"Hep3B-Luc cells; oral gavage 28 consecutive days, Orin 1001 80 mg/kg/day, sorafenib 45 mg/kg/day",2.68 ± 1.69 g
same,Median Survival Time (MST),"human liver HUH-7 cells; Orin 1001 80 mg/kg/day q.d. 28 days, sorafenib 18.25/25/45 mg/kg, Kaplan-Meier",20 days
same,ILS (%) (increase of life span),human liver HUH-7 cells; versus vehicle group (group 1),0%
same,ED50,IRE1α,< 2 mg/kg
same,bioavailability,[2],63%
same,bioavailability,[3],52%
same,bioavailability,[4],68.5%
same,5-fold safety margin,7-day toxicity study,750 mg/kg/day
same,NOAEL at 7 day,"7-day toxicity study; in vivo, read-out: No Observable Adverse Effect Level (NOAEL)",150 mg/kg/day
